# Assay results: patent US20230399312A1, “SUBSTITUTED PYRIMIDINES AND METHODS OF USE” (THERAVANCE BIOPHARMA R&D IP, LLC, priority 2020, published 2023)
# What was measured:
# [1] = biological target: T1, recombinant human ALK5 (TGF-βR1) protein (Homo sapiens, UniProt P36897); test: Biochemical ALK5 (TGF-βR1) assay to measure pKi (LANCE Ultra ULight kinase assay); conditions: apparent pKi, converted from pIC50 by Cheng-Prusoff
# T1 construct: purchased Life Technologies PR9075A
# T1 sequence (P36897 34-503): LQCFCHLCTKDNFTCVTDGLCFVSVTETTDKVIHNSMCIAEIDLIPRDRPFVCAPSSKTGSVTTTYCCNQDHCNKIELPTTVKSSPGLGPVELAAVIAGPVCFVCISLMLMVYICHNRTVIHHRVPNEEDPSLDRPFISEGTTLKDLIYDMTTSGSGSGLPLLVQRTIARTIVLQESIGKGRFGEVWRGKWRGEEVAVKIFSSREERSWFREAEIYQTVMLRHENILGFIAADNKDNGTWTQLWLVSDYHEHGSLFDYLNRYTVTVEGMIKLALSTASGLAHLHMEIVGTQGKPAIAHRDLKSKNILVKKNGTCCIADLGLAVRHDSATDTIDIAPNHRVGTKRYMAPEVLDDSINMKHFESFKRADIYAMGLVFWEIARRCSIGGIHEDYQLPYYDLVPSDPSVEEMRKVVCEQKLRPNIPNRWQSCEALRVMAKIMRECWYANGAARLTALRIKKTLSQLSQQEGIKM
# Outline: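 Read-out was LANCE Ultra TR-FRET with a europium anti-phospho-Topo IIα Thr1342 antibody after EDTA quench. Kinase reaction ran 60 min at 37 °C with ATP added from a 125 μM 5× stock, after 60 min compound–enzyme equilibration at room temperature. Values are pKi from Cheng-Prusoff conversion of fitted pIC50.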
# [2] = test system: TGF-β-stimulated SMAD3 phosphorylation in BEAS-2B cells; test: Cellular ALK5 potency assay, inhibition of TGF-β stimulated pSMAD3 formation in BEAS-2B cells; type: cell-based; conditions: Homo sapiens, pSMAD3, TGF-β 10 ng/mL, read-out: BEAS2B pIC50 (converted)
# Outline: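 Cells were seeded overnight, rinsed into HEPES/BSA-supplemented HBSS, and dosed with serially diluted compound for 1 h at 37 °C, 5% CO2. TGF-β stimulation (10 ng/mL final) followed for 30 min, then lysis and AlphaLISA pSMAD3 measurement; potency reported as pIC50.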
SMILES,Ki [1],IC50 [2]
"Cc1cccc(-c2nccc(Nc3ccnc(Nc4ccc(C(=O)OCCN5CCNCC5)nc4)n3)n2)n1 [Compound 552, 2-piperazin-1-ylethyl 5-[[4-[[2-(6-methyl-2-pyridyl)pyrimidin-4-yl]amino]pyrimidin-2-yl]amino]pyridine-2-carboxylate]",0.0398 to 0.316 nM,25.1 to 158 nM
"Cc1cccc(-c2nccc(Nc3ccnc(Nc4cccc(C(=O)OCCN5CCNCC5)c4)n3)n2)n1 [Compound 553, 2-piperazin-1-ylethyl 3-[[4-[[2-(6-methyl-2-pyridyl)pyrimidin-4-yl]amino]pyrimidin-2-yl]amino]benzoate]",0.398 to 3.16 nM,25.1 to 158 nM
"Cc1cccc(-c2nccc(Nc3ccnc(Nc4ccc(C(=O)OCCC5CCNCC5)nc4)n3)n2)n1 [Compound 558, 2-(4-piperidyl)ethyl 5-[[4-[[2-(6-methyl-2-pyridyl)pyrimidin-4-yl]amino]pyrimidin-2-yl]amino]pyridine-2-carboxylate]",0.0398 to 0.316 nM,25.1 to 158 nM
"Cc1cccc(-c2nccc(Nc3ccnc(Nc4csc(C(=O)OCCNC5CNC5)c4)n3)n2)n1 [Compound 560, 2-(azetidin-3-ylamino)ethyl 4-[[4-[[2-(6-methyl-2-pyridyl)pyrimidin-4-yl]amino]pyrimidin-2-yl]amino]thiophene-2-carboxylate]",0.0398 to 0.316 nM,25.1 to 158 nM
"Cc1cccc(-c2nccc(Nc3ccnc(Nc4ccc(C(=O)OC5CCNCC5)nc4)n3)n2)n1 [Compound 561, 4-piperidyl 5-[[4-[[2-(6-methyl-2-pyridyl)pyrimidin-4-yl]amino]pyrimidin-2-yl]amino]pyridine-2-carboxylate]",0.0398 to 0.316 nM,25.1 to 158 nM
"Cc1cccc(-c2nccc(Nc3ccnc(Nc4ccc(C(=O)O[C@H](C)C5CCNCC5)nc4)n3)n2)n1 [Compound 562, [(1R)-1-(4-piperidyl)ethyl] 5-[[4-[[2-(6-methyl-2-pyridyl)pyrimidin-4-yl]amino]pyrimidin-2-yl]amino]pyridine-2-carboxylate]",0.0398 to 0.316 nM,200 to 1260 nM
"Cc1cccc(-c2nccc(Nc3ccnc(Nc4csc(C(=O)OC[C@H]5CC[C@@H](N)CC5)c4)n3)n2)n1 [Compound 563, (4-aminocyclohexyl)methyl 4-[[4-[[2-(6-methyl-2-pyridyl)pyrimidin-4-yl]amino]pyrimidin-2-yl]amino]thiophene-2-carboxylate]",0.0398 to 0.316 nM,200 to 1260 nM
"Cc1cccc(-c2nccc(Nc3ccnc(Nc4ccc(C(=O)OCC5CNC5)cn4)n3)n2)n1 [Compound 564, azetidin-3-ylmethyl 6-[[4-[[2-(6-methyl-2-pyridyl)pyrimidin-4-yl]amino]pyrimidin-2-yl]amino]pyridine-3-carboxylate]",3.98 to 31.6 nM,200 to 1260 nM
"Cc1cccc(-c2nccc(Nc3ccnc(Nc4csc(C(=O)O[C@H]5CC[C@@](C)(N)CC5)c4)n3)n2)n1 [Compound 566, (4-amino-4-methyl-cyclohexyl) 4-[[4-[[2-(6-methyl-2-pyridyl)pyrimidin-4-yl]amino]pyrimidin-2-yl]amino]thiophene-2-carboxylate]",0.0398 to 0.316 nM,25.1 to 158 nM
"Cc1cccc(-c2nccc(Nc3ccnc(Nc4ccc(C(=O)O[C@@H]5CC[C@@H](C)NC5)nc4)n3)n2)n1 [Compound 567, [(3R,6R)-6-methyl-3-piperidyl] 5-[[4-[[2-(6-methyl-2-pyridyl)pyrimidin-4-yl]amino]pyrimidin-2-yl]amino]pyridine-2-carboxylate]",0.0398 to 0.316 nM,25.1 to 158 nM
"Cc1cccc(-c2nccc(Nc3ccnc(Nc4ccc(CN5CC(C(=O)O)C5)nc4)n3)n2)n1 [Compound 569, 1-[[5-[[4-[[2-(6-methyl-2-pyridyl)pyrimidin-4-yl]amino]pyrimidin-2-yl]amino]-2-pyridyl]methyl]azetidine-3-carboxylic acid]",0.0398 to 0.316 nM,200 to 1260 nM
"Cc1cccc(-c2nccc(Nc3ccnc(Nc4cncc(C(=O)OC[C@@H]5CCNC5)c4)n3)n2)n1 [Compound 570, [(3R)-pyrrolidin-3-yl]methyl 5-[[4-[[2-(6-methyl-2-pyridyl)pyrimidin-4-yl]amino]pyrimidin-2-yl]amino]pyridine-3-carboxylate]",0.398 to 3.16 nM,25.1 to 158 nM
"Cc1cccc(-c2nccc(Nc3ccnc(Nc4nc(C5=CCNCC5)cs4)n3)n2)n1 [Compound 571, N4-[2-(6-methyl-2-pyridyl)pyrimidin-4-yl]-N2-[4-(1,2,3,6-tetrahydropyridin-4-yl)thiazol-2-yl]pyrimidine-2,4-diamine]",0.0398 to 0.316 nM,≤ 20 nM
"Cc1cccc(-c2nccc(Nc3ccnc(Nc4cncc(CN5CC(C(=O)O[C@H]6CCNC6)C5)c4)n3)n2)n1 [Compound 573, [(3S)-pyrrolidin-3-yl] 1-[[5-[[4-[[2-(6-methyl-2-pyridyl)pyrimidin-4-yl]amino]pyrimidin-2-yl]amino]-3-pyridyl]methyl]azetidine-3-carboxylate]",0.0398 to 0.316 nM,25.1 to 158 nM
"Cc1cccc(-c2nccc(Nc3ccnc(Nc4ccc(C(=O)O[C@H]5CCNC5)cn4)n3)n2)n1 [Compound 575, [(3S)-pyrrolidin-3-yl] 6-[[4-[[2-(6-methyl-2-pyridyl)pyrimidin-4-yl]amino]pyrimidin-2-yl]amino]pyridine-3-carboxylate]",3.98 to 31.6 nM,200 to 1260 nM
"Cc1cccc(-c2nccc(Nc3ccnc(Nc4ccc(C(=O)OC[C@H]5CCCN5)nc4)n3)n2)n1 [Compound 577, [(2R)-pyrrolidin-2-yl]methyl 5-[[4-[[2-(6-methyl-2-pyridyl)pyrimidin-4-yl]amino]pyrimidin-2-yl]amino]pyridine-2-carboxylate]",0.0398 to 0.316 nM,25.1 to 158 nM

# Now from value to compound, other results behind:
Ki [1],SMILES,IC50 [2]
0.398 to 3.16 nM,"Cc1cccc(-c2nccc(Nc3ccnc(Nc4nc(C(=O)OCCN5CCNCC5)cs4)n3)n2)n1 [Compound 551, 2-piperazin-1-ylethyl 2-[[4-[[2-(6-methyl-2-pyridyl)pyrimidin-4-yl]amino]pyrimidin-2-yl]amino]thiazole-4-carboxylate]",200 to 1260 nM
0.0398 to 0.316 nM,"Cc1cccc(-c2nccc(Nc3ccnc(Nc4csc(C(=O)OCCN5CCNCC5)c4)n3)n2)n1 [Compound 554, 2-piperazin-1-ylethyl 4-[[4-[[2-(6-methyl-2-pyridyl)pyrimidin-4-yl]amino]pyrimidin-2-yl]amino]thiophene-2-carboxylate]",25.1 to 158 nM
0.0398 to 0.316 nM,"Fc1cc(F)c(-c2nccc(Nc3ccnc(Nc4ccc(N5CCNCC5)cc4)n3)n2)cc1Cl [Compound 556, N4-(2-(5-chloro-2,4-difluorophenyl)pyrimidin-4-yl)-N2-(4-(piperazin-1-yl)phenyl)pyrimidine-2,4-diamine]",25.1 to 158 nM
0.0398 to 0.316 nM,"Cc1cccc(-c2nccc(Nc3ccnc(Nc4ccc(C(=O)OCC56CNCC5C6)nc4)n3)n2)n1 (centres unmarked) [Compound 557, 3-azabicyclo[3.1.0]hexan-1-ylmethyl 5-[[4-[[2-(6-methyl-2-pyridyl)pyrimidin-4-yl]amino]pyrimidin-2-yl]amino]pyridine-2-carboxylate]",200 to 1260 nM
0.0398 to 0.316 nM,"Cc1cccc(-c2nccc(Nc3ccnc(Nc4cncc(CN5CC(C(=O)OC6CCNCC6)C5)c4)n3)n2)n1 [Compound 565, 4-piperidyl 1-[[5-[[4-[[2-(6-methyl-2-pyridyl)pyrimidin-4-yl]amino]pyrimidin-2-yl]amino]-3-pyridyl]methyl]azetidine-3-carboxylate]",25.1 to 158 nM
0.0398 to 0.316 nM,"Cc1cccc(-c2nccc(Nc3ccnc(Nc4csc(C(=O)OCCN5CC[C@@H](N)C5)c4)n3)n2)n1 [Compound 568, 2-[(3R)-3-aminopyrrolidin-1-yl]ethyl 4-[[4-[[2-(6-methyl-2-pyridyl)pyrimidin-4-yl]amino]pyrimidin-2-yl]amino]thiophene-2-carboxylate]",25.1 to 158 nM
0.0398 to 0.316 nM,"Cc1cccc(-c2nccc(Nc3ccnc(Nc4csc(C(=O)O[C@H]5CC[C@](C)(N)CC5)c4)n3)n2)n1 [Compound 572, (4-amino-4-methyl-cyclohexyl) 4-[[4-[[2-(6-methyl-2-pyridyl)pyrimidin-4-yl]amino]pyrimidin-2-yl]amino]thiophene-2-carboxylate]",25.1 to 158 nM
3.98 to 31.6 nM,"Cc1cccc(-c2nccc(Nc3ccnc(Nc4ccc(C(=O)O[C@@H]5CCNC5)cn4)n3)n2)n1 [Compound 574, [(3R)-pyrrolidin-3-yl] 6-[[4-[[2-(6-methyl-2-pyridyl)pyrimidin-4-yl]amino]pyrimidin-2-yl]amino]pyridine-3-carboxylate]",200 to 1260 nM
0.0398 to 0.316 nM,"CC(=O)N1CC(COC(=O)c2cc(Nc3nccc(Nc4ccnc(-c5cccc(C)n5)n4)n3)cs2)C1 [Compound 576, (1-acetylazetidin-3-yl)methyl 4-[[4-[[2-(6-methyl-2-pyridyl)pyrimidin-4-yl]amino]pyrimidin-2-yl]amino]thiophene-2-carboxylate]",25.1 to 158 nM
